Holding throughout (type): cell-based
The test system of test [1] is Bacillus subtilis ATCC 6633. Kind of test: MIC, two-fold dilution method, Bacillus subtilis ATCC 6633. The following applies: 10^6 CFU per ml, 37° C., 18 to 20 hours; for MIC: ATCC6633, Muller Hinton Broth, read-out: Antibacterial Activity (MIC). The procedure, abridged: (§1)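 Broth microdilution-type MIC: compound 2-fold serially diluted in Mueller Hinton Broth; inoculum 10^6 CFU/ml; 37° C., 18–20 h.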

Test [2] relates to Staphylococcus aureus ATCC 65389. The experiment in a line: MIC, two-fold dilution method, Staphylococcus aureus ATCC 65389. The following applies: 10^6 CFU per ml, 37° C., 18 to 20 hours; for MIC: ATCC65389, Muller Hinton Broth, read-out: Antibacterial Activity (MIC). The procedure, abridged: as §1
Test [3] deals with Staphylococcus epidermidis ATCC 12228. The experiment in a line: MIC, two-fold dilution method, Staphylococcus epidermidis ATCC 12228. The note with it: 10^6 CFU per ml, 37° C., 18 to 20 hours; for MIC: ATCC12228, Muller Hinton Broth, read-out: Antibacterial Activity (MIC). The procedure, abridged:
as §1

The subject of test [4] is Streptococcus faecalis ATCC 10541. The experiment in a line: MIC, two-fold dilution method, Streptococcus faecalis ATCC 10541. The following applies: 10^6 CFU per ml, 37° C., 18 to 20 hours; for MIC: Enterococcus faecalis, ATCC10541, Muller Hinton Broth, read-out: Antibacterial Activity (MIC). The procedure, abridged: as §1
Test [5] relates to Pseudomonas aeurginosa NCTC 10490. The experiment in a line: MIC, two-fold dilution method, Pseudomonas aeurginosa NCTC 10490. The note with it: 10^6 CFU per ml, 37° C., 18 to 20 hours; for MIC: NCTC10490, Muller Hinton Broth, read-out: Antibacterial Activity (MIC). The procedure, abridged:
as §1

In test [6] the test system is Esherichia coli ATCC 25922. Kind of test: MIC, two-fold dilution method, Esherichia coli ATCC 25922. The following applies: Muller Hinton Broth, 10^6 CFU per ml, 37° C., 18 to 20 hours; for MIC: read-out: Antibacterial Activity (MIC). The procedure, abridged:
as §1

Test [7] has as its system Klebsiella pneumoniae ATCC 10031. Kind of test: MIC, two-fold dilution method, Klebsiella pneumoniae ATCC 10031. The note with it: 10^6 CFU per ml, 37° C., 18 to 20 hours; for MIC: ATCC10031, Muller Hinton Broth, read-out: Antibacterial Activity (MIC). The procedure, abridged: as §1

As a reminder, the MIC is the smallest concentration in the dilution series that meets the test's criterion for growth inhibition.

≈ marks a conversion by molar mass, not a printed value.

With `C#CCO/N=C(\C(=O)NC1C(=O)N2C(C(=O)[O-])=C(CSc3cc[n+](CC=C)c4cc(N5CCNCC5)c(F)cc34)CS[C@H]12)c1csc(N)n1` (stereo partly drawn) [Compound I-49, 7-[(Z)-2-(2-aminothiazol-4-yl)-2-(propargyloxyimino)acetamido]-3-(1-allyl-6-fluoro-7-piperazinylquinolinium-4-yl)thiomethyl-3-cephem-4-carboxylate], the MIC in test [1] amounted to 0.39 µg/mL (≈ 0.54 µM); in test [2], 1.56 µg/mL (≈ 2.16 µM); in test [3], 1.56 µg/mL (≈ 2.16 µM); in test [4] it was 0.78 µg/mL (≈ 1.08 µM); in test [5], 1.56 µg/mL (≈ 2.16 µM); in test [6] it was 1.56 µg/mL (≈ 2.16 µM). Besides, the MIC in test [7] stood at 1.56 µg/mL (≈ 2.16 µM).
With `C=CCO/N=C(\C(=O)NC1C(=O)N2C(C(=O)[O-])=C(CSc3cc[n+](C)c4cc(N5CCN(CC)CC5)c(F)cc34)CSC12)c1csc(N)n1` (stereo not drawn) [Compound I-23, 7-[(Z)-2-(2-aminothiazol-4-yl)-2-(allyloxyimino)acetamido]-3-[1-methyl-6-fluoro-7-(1-ethylpiperazinyl)quinolinium-4-yl]thiomethyl-3-cephem-4-carboxylate], the MIC worked out at 0.2 µg/mL (≈ 0.275 µM) in test [1]; 0.1 µg/mL (≈ 0.138 µM) in test [2]; 0.1 µg/mL (≈ 0.138 µM) in test [3]; 0.2 µg/mL (≈ 0.275 µM) in test [4]; 1.56 µg/mL (≈ 2.15 µM) in test [5]; 1.56 µg/mL (≈ 2.15 µM) in test [6]. Further, in test [7], the MIC stood at 0.2 µg/mL (≈ 0.275 µM).
On to `C=CC[n+]1ccc(SCC2=C(C(=O)[O-])N3C(=O)C(NC(=O)/C(=N\OC(C)(C)C(=O)O)c4csc(N)n4)[C@H]3SC2)c2cc(F)c(N3CCNCC3C)cc21` (stereo partly drawn) [Compound I-64, 7-[(Z)-2-(2-aminothiazol-4-yl)-2-(2-carboxyprop-2-oxyimino)acetamido]-3-[1-allyl-6-fluoro-7-(2-methylpiperazinyl)quinolinium-4-yl]thiomethyl-3-cephem-4-carboxylate], for which the “Antibacterial Activity (MIC)” value was determined as 1.56 µg/mL in test [1] (Muller Hinton Broth); 3.13 µg/mL in test [2] (Muller Hinton Broth); 1.56 µg/mL in test [3] (Muller Hinton Broth); 0.39 µg/mL in test [4] (Muller Hinton Broth); 3.13 µg/mL in test [5] (Muller Hinton Broth); 1.56 µg/mL in test [6]. Also, the “Antibacterial Activity (MIC)” value in test [7] (Muller Hinton Broth) was 1.56 µg/mL.

Values taken from patent US5663331A, “Cephalosporin compounds” (Il-Dong Pharm. Co., Ltd., priority 1992, dated 1997).
